Holding throughout (assay type): biochemical
The target in assay [1] is PI3Kα (Homo sapiens, UniProt P42336). As to the kind of experiment: PI3K-alpha fluorescence polarization assay. The conditions noted are these: read-out: PI3Kα Median IC50. For orientation: In fluorescence polarisation assays a small probe gives low polarisation when free and higher when bound to something large.
Assay [2] addresses mTOR (Homo sapiens, UniProt P42345). As to the kind of experiment: mTOR enzyme assay (DELFIA format, His6-S6K substrate). Conditions: read-out: mTOR Kinase Median IC50.
In assay [3] the target is PI3Kγ (Homo sapiens, UniProt P48736). As to the kind of experiment: PI3K-gamma fluorescence polarization assay. The conditions noted are these: read-out: PI3Kγ Median IC50.
PI3Kγ, sequence (P48736 whole entry, species assumed): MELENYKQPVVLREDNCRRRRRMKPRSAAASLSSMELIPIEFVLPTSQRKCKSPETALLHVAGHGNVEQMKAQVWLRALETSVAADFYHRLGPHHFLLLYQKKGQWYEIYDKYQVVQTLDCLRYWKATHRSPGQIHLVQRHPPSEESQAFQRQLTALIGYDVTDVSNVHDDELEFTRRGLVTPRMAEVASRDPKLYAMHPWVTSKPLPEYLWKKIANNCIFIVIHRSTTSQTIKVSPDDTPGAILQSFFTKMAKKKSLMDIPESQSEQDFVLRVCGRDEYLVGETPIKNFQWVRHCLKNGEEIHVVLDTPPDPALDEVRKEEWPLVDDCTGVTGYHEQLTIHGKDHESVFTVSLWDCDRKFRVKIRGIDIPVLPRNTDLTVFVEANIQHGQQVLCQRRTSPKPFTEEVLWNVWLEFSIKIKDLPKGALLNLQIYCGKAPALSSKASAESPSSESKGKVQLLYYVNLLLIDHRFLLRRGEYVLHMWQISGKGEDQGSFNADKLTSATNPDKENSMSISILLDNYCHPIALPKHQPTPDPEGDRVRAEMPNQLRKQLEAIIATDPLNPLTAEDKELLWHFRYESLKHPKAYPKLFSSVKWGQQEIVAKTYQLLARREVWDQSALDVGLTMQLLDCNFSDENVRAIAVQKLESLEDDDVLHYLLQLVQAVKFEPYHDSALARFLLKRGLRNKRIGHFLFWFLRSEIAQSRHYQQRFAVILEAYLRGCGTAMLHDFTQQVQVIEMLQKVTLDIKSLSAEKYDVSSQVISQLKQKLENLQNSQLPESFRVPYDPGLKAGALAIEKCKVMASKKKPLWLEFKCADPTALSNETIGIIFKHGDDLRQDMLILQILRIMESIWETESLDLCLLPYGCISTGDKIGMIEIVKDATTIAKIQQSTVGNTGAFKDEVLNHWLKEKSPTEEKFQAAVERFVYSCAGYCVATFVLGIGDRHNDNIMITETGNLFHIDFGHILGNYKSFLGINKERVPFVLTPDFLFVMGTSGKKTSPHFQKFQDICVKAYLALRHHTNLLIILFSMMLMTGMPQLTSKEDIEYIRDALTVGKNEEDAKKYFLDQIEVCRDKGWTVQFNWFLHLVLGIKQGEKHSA

pIC50: −log10 of the molar value. Bounds are passed on as bounds.

PI3Kα, sequence (P42336 whole entry, species assumed): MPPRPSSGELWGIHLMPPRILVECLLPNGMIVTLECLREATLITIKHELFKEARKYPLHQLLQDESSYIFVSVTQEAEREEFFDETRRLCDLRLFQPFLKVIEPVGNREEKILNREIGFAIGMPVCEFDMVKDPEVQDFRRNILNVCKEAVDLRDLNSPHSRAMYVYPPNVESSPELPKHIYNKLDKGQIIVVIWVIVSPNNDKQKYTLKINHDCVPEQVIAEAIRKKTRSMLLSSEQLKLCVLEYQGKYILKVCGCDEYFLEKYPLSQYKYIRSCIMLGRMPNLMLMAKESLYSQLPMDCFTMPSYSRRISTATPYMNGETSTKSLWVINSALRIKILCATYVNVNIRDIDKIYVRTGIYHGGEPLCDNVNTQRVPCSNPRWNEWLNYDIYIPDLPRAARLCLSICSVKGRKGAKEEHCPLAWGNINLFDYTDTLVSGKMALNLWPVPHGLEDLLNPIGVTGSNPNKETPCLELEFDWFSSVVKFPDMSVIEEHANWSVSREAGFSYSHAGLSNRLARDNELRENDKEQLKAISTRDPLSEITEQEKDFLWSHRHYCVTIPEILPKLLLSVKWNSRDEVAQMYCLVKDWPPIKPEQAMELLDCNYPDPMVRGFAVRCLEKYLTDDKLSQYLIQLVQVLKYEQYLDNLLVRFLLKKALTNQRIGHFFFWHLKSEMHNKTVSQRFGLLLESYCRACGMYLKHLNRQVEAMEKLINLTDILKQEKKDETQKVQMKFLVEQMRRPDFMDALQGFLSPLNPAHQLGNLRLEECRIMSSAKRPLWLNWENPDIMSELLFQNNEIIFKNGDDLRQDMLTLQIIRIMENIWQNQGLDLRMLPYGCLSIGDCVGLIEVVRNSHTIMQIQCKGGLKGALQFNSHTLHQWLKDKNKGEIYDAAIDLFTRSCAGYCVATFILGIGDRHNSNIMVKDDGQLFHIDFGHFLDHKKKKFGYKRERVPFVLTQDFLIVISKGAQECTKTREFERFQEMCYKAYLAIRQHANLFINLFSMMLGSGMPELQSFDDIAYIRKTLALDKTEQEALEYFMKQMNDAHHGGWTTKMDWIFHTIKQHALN
PI3Kα, sequence (P27986 whole entry partner, species assumed): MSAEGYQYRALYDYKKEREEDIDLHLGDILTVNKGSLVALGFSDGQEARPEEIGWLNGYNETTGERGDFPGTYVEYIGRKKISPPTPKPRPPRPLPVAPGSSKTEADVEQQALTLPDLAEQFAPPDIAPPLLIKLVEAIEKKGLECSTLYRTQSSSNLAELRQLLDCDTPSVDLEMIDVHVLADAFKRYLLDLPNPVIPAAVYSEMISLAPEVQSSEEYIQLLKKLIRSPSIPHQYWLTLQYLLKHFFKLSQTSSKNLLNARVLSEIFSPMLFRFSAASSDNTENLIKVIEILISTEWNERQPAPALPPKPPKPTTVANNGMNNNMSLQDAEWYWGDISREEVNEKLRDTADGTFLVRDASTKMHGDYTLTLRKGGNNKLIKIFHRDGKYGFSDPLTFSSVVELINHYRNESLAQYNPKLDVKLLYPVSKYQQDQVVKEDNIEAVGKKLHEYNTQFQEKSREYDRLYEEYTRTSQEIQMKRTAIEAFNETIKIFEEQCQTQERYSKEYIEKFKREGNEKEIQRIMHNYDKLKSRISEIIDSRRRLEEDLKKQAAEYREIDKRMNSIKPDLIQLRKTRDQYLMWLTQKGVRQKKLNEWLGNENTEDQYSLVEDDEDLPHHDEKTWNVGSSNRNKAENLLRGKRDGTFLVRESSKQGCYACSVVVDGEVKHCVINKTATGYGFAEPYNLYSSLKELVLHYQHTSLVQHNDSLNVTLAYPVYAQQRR

For orientation: pIC50 means the negative decadic logarithm of the IC50, by convention in mol/L. Consider “1-cyclopropyl-3-[(2Z)-2-{[1-methyl-4-(8-oxa-3-azabicyclo[3.2.1]oct-3-yl)-1H-pyrrolo[2,3-b]pyridin-3-yl]methylidene}-3-oxo-2,3-dihydro-1-benzofuran-5-yl]urea [Compound 237]”, for which the pIC50 was 6.54 in assay [1], 7.64 in assay [2] and 5.67 in assay [3].

Take `Cn1cc(C=C2Oc3cc(O)cc(O)c3C2=O)c2cccnc21` [Compound 1, 4,6-dihydroxy-2-[(1-methyl-1H-pyrrolo[2,3-b]pyridin-3-yl)methylene]-1-benzofuran-3(2H)-one]: the pIC50 in assay [1] was 7.19; in assay [2], 7.38; in assay [3], 6.77.

On to `COc1ccc2c(n1)c(C=C1Oc3cc(O)cc(O)c3C1=O)cn2C` [Compound 3, 4,6-dihydroxy-2-[(5-methoxy-1-methyl-1H-pyrrolo[3,2-b]pyridin-3-yl)methylene]-1-benzofuran-3(2H)-one], for which the pIC50 was 6.30 in assay [1], 6.16 in assay [2] and less than 5.00 in assay [3].

`COc1ccc2c(n1)c(C=C1Oc3cccc(O)c3C1=O)cn2C` [Compound 5, 4-hydroxy-2-[(5-methoxy-1-methyl-1H-pyrrolo[3,2-b]pyridin-3-yl)methylene]-1-benzofuran-3(2H)-one]: the results for the pIC50 in assay [1], in assay [2] and in assay [3] were 5.41, less than 4.70 and less than 5.00, respectively.

For the molecule `O=C1C(=Cc2c[nH]c3ncccc23)Oc2cc(O)cc(O)c21` [Compound 11, 4,6-dihydroxy-2-(1H-pyrrolo[2,3-b]pyridin-3-ylmethylene)-1-benzofuran-3(2H)-one], the pIC50 in assay [1] is 6.28; in assay [2], 5.92.

`Cn1cc(/C=C2\Oc3cc(O)cc(O)c3C2=O)c2c(-c3ccccc3Cl)ccnc21` [Compound 12, (2Z)-2-{[4-(2-chlorophenyl)-1-methyl-1H-pyrrolo[2,3-b]pyridin-3-yl]methylene}-4,6-dihydroxy-1-benzofuran-3(2H)-one]: the pIC50 in assay [1] was 6.78; in assay [2] it was 8.55; in assay [3], 6.57.

With `Cn1cc(/C=C2\Oc3cc(O)cc(O)c3C2=O)c2c(-c3cccc(Cl)c3)ccnc21` [Compound 13, (2Z)-2-{[4-(3-chlorophenyl)-1-methyl-1H-pyrrolo[2,3-b]pyridin-3-yl]methylene}-4,6-dihydroxy-1-benzofuran-3(2H)-one], the figures for the pIC50 in assay [1], in assay [2] and in assay [3] were 6.94, 8.92 and 7.10, respectively.

As for `COc1ccccc1-c1ccnc2c1c(/C=C1\Oc3cc(O)cc(O)c3C1=O)cn2C` [Compound 14, (2Z)-4,6-dihydroxy-2-{[4-(2-methoxyphenyl)-1-methyl-1H-pyrrolo[2,3-b]pyridin-3-yl]methylene}-1-benzofuran-3(2H)-one], the pIC50 in assay [1] was 6.73; in assay [2], 8.85; in assay [3], 6.66.

On to `Cn1cc(/C=C2\Oc3cc(O)cc(O)c3C2=O)c2c(-c3ccc(OCCn4ccnc4)cc3)ccnc21` [Compound 16, (2Z)-4,6-dihydroxy-2-[(4-{4-[2-(1H-imidazol-1-yl)ethoxy]phenyl}-1-methyl-1H-pyrrolo[2,3-b]pyridin-3-yl)methylene]-1-benzofuran-3(2H)-one], for which the pIC50 is 7.62 in assay [1], 8.30 in assay [2] and 6.61 in assay [3].

In the case of `Cn1cc(/C=C2\Oc3cc(O)cc(O)c3C2=O)c2c(-c3ccc(S(N)(=O)=O)cc3)ccnc21` [Compound 17, 4-{3-[(Z)-(4,6-dihydroxy-3-oxo-1-benzofuran-2(3H)-ylidene)methyl]-1-methyl-1H-pyrrolo[2,3-b]pyridin-4-yl}benzenesulfonamide], the values for the pIC50 in assay [1], in assay [2] and in assay [3] were 8.15, 9.52 and 7.24, respectively.

With `Cn1cc(/C=C2\Oc3cc(O)cc(O)c3C2=O)c2c(-c3cccc(NS(C)(=O)=O)c3)ccnc21` [Compound 18, N-(3-{3-[(Z)-(4,6-dihydroxy-3-oxo-1-benzofuran-2(3H)-ylidene)methyl]-1-methyl-1H-pyrrolo[2,3-b]pyridin-4-yl}phenyl)methanesulfonamide], the figures for the pIC50 in assay [1], in assay [2] and in assay [3] were 7.72, 8.57 and 6.97, respectively.

On to `Cn1cc(/C=C2\Oc3cc(O)cc(O)c3C2=O)c2c(-c3ccc(O)cc3)ccnc21` [Compound 19, (2Z)-4,6-dihydroxy-2-{[4-(4-hydroxyphenyl)-1-methyl-1H-pyrrolo[2,3-b]pyridin-3-yl]methylene}-1-benzofuran-3(2H)-one], for which the pIC50 in assay [1] is 7.85; in assay [2], 9.30; in assay [3], 7.46.

Turning to `Cn1cc(/C=C2\Oc3cc(O)cc(O)c3C2=O)c2c(-c3ccc(C(N)=NO)cc3)ccnc21` [Compound 20, 4-{3-[(Z)-(4,6-dihydroxy-3-oxo-1-benzofuran-2(3H)-ylidene)methyl]-1-methyl-1H-pyrrolo[2,3-b]pyridin-4-yl}-N′-hydroxybenzenecarboximidamide], the pIC50 is 8.22 in assay [1], 9.70 in assay [2] and 7.36 in assay [3].

Turning to `Cn1cc(/C=C2\Oc3cccc(O)c3C2=O)c2c(-c3cccc(S(N)(=O)=O)c3)ccnc21` [Compound 21, 3-{3-[(Z)-(4-hydroxy-3-oxo-1-benzofuran-2(3H)-ylidene)methyl]-1-methyl-1H-pyrrolo[2,3-b]pyridin-4-yl}benzenesulfonamide], the figures for the pIC50 in assay [1], in assay [2] and in assay [3] were 7.47, 8.46 and 6.85, respectively.

For the molecule `Cn1cc(/C=C2\Oc3cc(O)cc(O)c3C2=O)c2c(-c3ccccc3)ccnc21` [Compound 24, (2Z)-4,6-dihydroxy-2-[(1-methyl-4-phenyl-1H-pyrrolo[2,3-b]pyridin-3-yl)methylene]-1-benzofuran-3(2H)-one], the pIC50 in assay [1] was 7.02; in assay [2], 9.30; in assay [3] it was 7.03.

For `CN(C)c1ccc(-c2ccnc3c2c(/C=C2\Oc4cc(O)cc(O)c4C2=O)cn3C)cc1` [Compound 25, (2Z)-2-({4-[4-(dimethylamino)phenyl]-1-methyl-1H-pyrrolo[2,3-b]pyridin-3-yl}methylene)-4,6-dihydroxy-1-benzofuran-3(2H)-one], the figures for the pIC50 in assay [1], in assay [2] and in assay [3] were 7.07, 9.30 and 7.08, respectively.

As to `COc1ccc2[nH]cc(/C=C3\Oc4cc(O)cc(O)c4C3=O)c2n1` [Compound 26, (2Z)-4,6-dihydroxy-2-[(5-methoxy-1H-pyrrolo[3,2-b]pyridin-3-yl)methylene]-1-benzofuran-3(2H)-one], the pIC50 is 6.63 in assay [1], less than 5.40 in assay [2] and 5.80 in assay [3].

In the case of `Cn1c(-c2ccccc2)c(/C=C2\Oc3cc(O)cc(O)c3C2=O)c2cccnc21` [Compound 27, (2Z)-4,6-dihydroxy-2-[(1-methyl-2-phenyl-1H-pyrrolo[2,3-b]pyridin-3-yl)methylene]-1-benzofuran-3(2H)-one], the pIC50 is 6.09 in assay [1], 7.30 in assay [2] and 5.40 in assay [3].

For `Cn1c(-c2ccccc2)c(/C=C2\Oc3cc(O)ccc3C2=O)c2cccnc21` [Compound 28, (2Z)-6-hydroxy-2-[(1-methyl-2-phenyl-1H-pyrrolo[2,3-b]pyridin-3-yl)methylene]-1-benzofuran-3(2H)-one], the pIC50 in assay [1] was 5.29; in assay [2], 5.60; in assay [3] it was 5.29.

Take `Cn1c(-c2ccccc2)c(/C=C2\Oc3cccc(O)c3C2=O)c2cccnc21` [Compound 29, (2Z)-4-hydroxy-2-[(1-methyl-2-phenyl-1H-pyrrolo[2,3-b]pyridin-3-yl)methylene]-1-benzofuran-3(2H)-one]: the pIC50 in assay [1] was 5.44; in assay [2], 5.57; in assay [3], 5.10.

For `Cn1cc(/C=C2\Oc3cc(O)cc(O)c3C2=O)c2c(-c3cccnc3)ccnc21` [Compound 33, (2Z)-4,6-dihydroxy-2-[(1-methyl-4-pyridin-3-yl-1H-pyrrolo[2,3-b]pyridin-3-yl)methylene]-1-benzofuran-3(2H)-one], the pIC50 in assay [1] was 8.10; in assay [2], 9.22; in assay [3], 7.42.

Take `Cn1cc(/C=C2\Oc3cc(O)cc(O)c3C2=O)c2c(-c3ccc(C(N)=O)cc3)ccnc21` [Compound 34, 4-{3-[(Z)-(4,6-dihydroxy-3-oxo-1-benzofuran-2(3H)-ylidene)methyl]-1-methyl-1H-pyrrolo[2,3-b]pyridin-4-yl}benzamide]: the pIC50 in assay [1] was 8.22; in assay [2], 9.70; in assay [3], 7.42.

As for `CN(C)S(=O)(=O)c1ccc(-c2ccnc3c2c(/C=C2\Oc4cccc(O)c4C2=O)cn3C)cc1` [Compound 180, 4-{3-[(Z)-(4-hydroxy-3-oxo-1-benzofuran-2(3H)-ylidene)methyl]-1-methyl-1H-pyrrolo[2,3-b]pyridin-4-yl}-N,N-dimethylbenzenesulfonamide], the pIC50 in assay [2] is 8.54.

Take `Cn1cc(/C=C2\Oc3cccc(O)c3C2=O)c2c(-c3ccc(C(=O)NCCO)cc3)ccnc21` [Compound 182, N-(2-hydroxyethyl)-4-{3-[(Z)-(4-hydroxy-3-oxo-1-benzofuran-2(3H)-ylidene)methyl]-1-methyl-1H-pyrrolo[2,3-b]pyridin-4-yl}benzamide]: the pIC50 in assay [2] is 8.80.

Consider `CN(C)C(=O)CN(C)C(=O)C1CCN(c2ccnc3c2c(C=C2Oc4ccc(NC(=O)Nc5cccnc5)cc4C2=O)cn3C)CC1` [Compound 201, N-[2-(dimethylamino)-2-oxoethyl]-N-methyl-1-[1-methyl-3-({3-oxo-5-[(pyridin-3-ylcarbamoyl)amino]-1-benzofuran-2(3H)-ylidene}methyl)-1H-pyrrolo[2,3-b]pyridin-4-yl]piperidine-4-carboxamide], for which the pIC50 in assay [2] was 8.11.

Consider `Cn1cc(/C=C2\Oc3ccc(NC(=O)Nc4ccc(Cl)nc4)cc3C2=O)c2c(N3CC4CCC(C3)O4)ccnc21` [Compound 299, 1-(6-chloropyridin-3-yl)-3-[(2Z)-2-{[1-methyl-4-(8-oxa-3-azabicyclo[3.2.1]oct-3-yl)-1H-pyrrolo[2,3-b]pyridin-3-yl]methylidene}-3-oxo-2,3-dihydro-1-benzofuran-5-yl]urea], for which the pIC50 in assay [2] was 7.16.

Source of the values: patent US20090298820A1, “3-SUBSTITUTED-1H-PYRROLO[2,3-B]PYRIDINE AND 3-SUBSTITUTED-1H-PYRROLO[3,2-B]PYRIDINE COMPOUNDS, THEIR USE AS MTOR KINASE AND PI3 KINASE INHIBITORS, AND THEIR SYNTHESES” (Wyeth, priority 2008, published 2009).
